{"source": "patent US20260216294A1", "about": "“BETA 2-ADRENERGIC RECEPTOR AGONISTS FOR TREATMENT OR PREVENTION OF MUSCLE WASTING” (ATROGI AB, priority 2023, published 2026)", "key": {"[1]": {"tested_on": "L6-myotubes", "assay": "Measurement of intracellular cAMP levels in differentiated L6-myotubes (Biological Example 3)", "type": "cell-based", "conditions": "intracellular cAMP in differentiated L6-myotubes, compound at 10 μM, activity relative to isoproterenol at 10 μM; for Emax at 10 µM: 0.25 h", "method_in_brief": "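Serum-starved differentiated L6 myotubes stimulated 15 min with test compound at 1×10^−5 M final (isoprenaline as reference) in HBSS with 1% BSA, 5 mM HEPES, 1 mM IBMX, pH 7.4. Cells EtOH-extracted, lysed, and intracellular cAMP measured by AlphaScreen.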"}, "[2]": {"tested_on": "L6-myotubes", "assay": "Glucose uptake in differentiated L6-myotubes (Biological Example 2)", "type": "cell-based", "conditions": "glucose uptake in differentiated L6-myotubes, compound at 10 μM, activity relative to isoproterenol at 10 μM; for Emax at 10 µM: read-out: Biological example 2 (GU)", "method_in_brief": "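Differentiated L6 myotubes were serum-starved overnight in 0.5% fatty-acid-free BSA and then stimulated with compound or isoprenaline at 1×10^−5 M final. After 1 h 40 min cells were washed and re-dosed in glucose-free medium. Twenty minutes later, uptake of 50 nM ^3H-2-deoxyglucose over 10 min was measured by scintillation counting of NaOH lysates.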"}}, "data": [{"molecule": "CC(C)(C[C@H]1CC[C@@H](NS(C)(=O)=O)CC1)NC[C@H](O)c1cncc(F)c1", "note": "[Compound 468, (R)-2-{1,1-dimethyl-2-[(1s,4S)-4-(mesylamino)cyclohexyl]ethylamino}-1-(5-fluoro-3-pyridyl)-1-ethanol]", "values": [{"measurement": "Emax at 10 µM", "setting": "[1]", "value": "< 25", "unit": "%"}, {"measurement": "Emax at 10 µM", "setting": "[2]", "value": "> 75", "unit": "%"}]}, {"molecule": "CC(C)(C[C@H]1CC[C@@H](NC(=O)OC(C)(C)C)CC1)NC[C@H](O)c1cncc(F)c1", "note": "[Compound 469, (1S,4s)-4-{2-[(R)-2-(5-fluoro-3-pyridyl)-2-hydroxyethylamino]-2-methylpropyl}cyclohexy-2-methyl-2-propanecarbamate]", "values": [{"measurement": "Biological example 3 (CAMP)", "setting": "[1]", "value": "− (if it less than 25% it is denoted with −)"}, {"measurement": "Biological example 2 (GU)", "setting": "[2]", "value": "+++ (If a compound at 10 μM shows activity of more than 75% of that of isoproterenol at 10 μM, the activity is denoted with +++)"}]}, {"molecule": "CN(C)S(=O)(=O)[C@H]1CC[C@@H](CC(C)(C)NC[C@H](O)c2cccc(F)c2)CC1", "note": "[Compound 470]", "values": [{"measurement": "Emax at 10 µM", "setting": "[1]", "value": "25 to 50", "unit": "%"}, {"measurement": "Emax at 10 µM", "setting": "[2]", "value": "> 75", "unit": "%"}]}, {"molecule": "CN(C)S(=O)(=O)[C@H]1CC[C@@H](CC(C)(C)NC[C@H](O)c2cncc(F)c2)CC1", "note": "[Compound 471]", "values": [{"measurement": "Emax at 10 µM", "setting": "[1]", "value": "50 to 75", "unit": "%"}, {"measurement": "Emax at 10 µM", "setting": "[2]", "value": "> 75", "unit": "%"}]}, {"molecule": "CS(=O)(=O)N(Cc1ccccc1)c1ccc(CC23CCC([C@@H](O)c4cccc(F)c4)(CC2)N3)cc1", "note": "[Compound 472, (S)-[4-({p-[(benzyl)-N-mesylamino]phenyl}methyl)-7-azabicyclo[[2.2.1]]hept-1-yl](m-fluorophenyl)methanol]", "values": [{"measurement": "Emax at 10 µM", "setting": "[1]", "value": "< 25", "unit": "%"}, {"measurement": "Emax at 10 µM", "setting": "[2]", "value": "25 to 50", "unit": "%"}]}, {"molecule": "CS(=O)(=O)N(Cc1ccccc1)c1ccc(CC23CCC([C@H](O)c4cccc(F)c4)(CC2)N3)cc1", "note": "[Compound 473]", "values": [{"measurement": "Emax at 10 µM", "setting": "[1]", "value": "< 25", "unit": "%"}, {"measurement": "Emax at 10 µM", "setting": "[2]", "value": "25 to 50", "unit": "%"}]}, {"molecule": "CS(=O)(=O)Nc1ccc(CC23CCC([C@@H](O)c4cccc(F)c4)(CC2)N3)cc1", "note": "[Compound 474, (S)-(m-fluorophenyl)(4-{[p-(mesylamino)phenyl]methyl}-7-azabicyclo[[2.2.1]]hept-1-yl)methanol]", "values": [{"measurement": "Emax at 10 µM", "setting": "[1]", "value": "< 25", "unit": "%"}, {"measurement": "Emax at 10 µM", "setting": "[2]", "value": "50 to 75", "unit": "%"}]}, {"molecule": "CS(=O)(=O)Nc1ccc(CC23CCC([C@H](O)c4cccc(F)c4)(CC2)N3)cc1", "note": "[Compound 475, (R)-(m-fluorophenyl)(4-{[p-(mesylamino)phenyl]methyl}-7-azabicyclo[[2.2.1]]hept-1-yl)methanol]", "values": [{"measurement": "Emax at 10 µM", "setting": "[1]", "value": "< 25", "unit": "%"}, {"measurement": "Emax at 10 µM", "setting": "[2]", "value": "50 to 75", "unit": "%"}]}, {"molecule": "CNS(=O)(=O)[C@H]1CC[C@H](CC(C)(C)NC[C@H](O)c2cccc(F)c2)CC1", "note": "[Compound 476]", "values": [{"measurement": "Emax at 10 µM", "setting": "[1]", "value": "25 to 50", "unit": "%"}, {"measurement": "Emax at 10 µM", "setting": "[2]", "value": "> 75", "unit": "%"}]}, {"molecule": "CNS(=O)(=O)[C@H]1CC[C@@H](CC(C)(C)NC[C@H](O)c2cccc(F)c2)CC1", "note": "[Compound 477, (R)-2-{1,1-dimethyl-2-[(1s,4S)-4-(methylaminosulfonyl)cyclohexyl]ethylamino}-1-(m-fluorophenyl)-1-ethanol]", "values": [{"measurement": "Emax at 10 µM", "setting": "[1]", "value": "< 25", "unit": "%"}, {"measurement": "Emax at 10 µM", "setting": "[2]", "value": "50 to 75", "unit": "%"}]}, {"molecule": "CNS(=O)(=O)[C@H]1CC[C@H](CC(C)(C)NC[C@H](O)c2cncc(F)c2)CC1", "note": "[Compound 478, (R)-2-{1,1-dimethyl-2-[(1r,4R)-4-(methylaminosulfonyl)cyclohexyl]ethylamino}-1-(5-fluoro-3-pyridyl)-1-ethanol]", "values": [{"measurement": "Emax at 10 µM", "setting": "[1]", "value": "< 25", "unit": "%"}, {"measurement": "Emax at 10 µM", "setting": "[2]", "value": "25 to 50", "unit": "%"}]}, {"molecule": "CC(=O)N(Cc1ccccc1)[C@H]1CC[C@@H](C[C@@H]2CC[C@H]([C@@H](O)c3cccc(F)c3)N2)CC1", "note": "[Compound 479, N-[(1R,4s)-4-({(2S,5R)-5-[(S)-(m-fluorophenyl) hydroxymethyl]-2-pyrrolidinyl}methyl)cyclohexyl]-N-benzylacetamide]", "values": [{"measurement": "Emax at 10 µM", "setting": "[1]", "value": "< 25", "unit": "%"}, {"measurement": "Emax at 10 µM", "setting": "[2]", "value": "< 25", "unit": "%"}]}, {"molecule": "CC(=O)N(Cc1ccccc1)[C@H]1CC[C@@H](C[C@@H]2CC[C@H]([C@H](O)c3cccc(F)c3)N2)CC1", "note": "[Compound 480, N-[(1R,4s)-4-({(2S,5R)-5-[(R)-(m-fluorophenyl) hydroxymethyl]-2-pyrrolidinyl}methyl)cyclohexyl]-N-benzylacetamide]", "values": [{"measurement": "Emax at 10 µM", "setting": "[1]", "value": "< 25", "unit": "%"}, {"measurement": "Emax at 10 µM", "setting": "[2]", "value": "< 25", "unit": "%"}]}]}
